Reference: US10813929B2, “Treating cancer with ATR inhibitors” (VERTEX PHARMACEUTICALS INCORPORATED, priority 2011, dated 2020)

Legend:
[1] = system: pancreatic cancer cell lines; experiment: Pancreatic cancer cell screen, CellTiter-Glo cell viability assay; type: cell-based
Protocol: All cell lines were seeded in 30 μl of tissue culture medium containing 10% FBS into 384-well opaque-bottom plates. The seeding density was based on the logarithmic growth rate of each cell line. After 24 hours, compound stock solutions were added to each well to afford a matrix consisting of 9 concentrations for VE-822 and 7 concentrations for Gemcitabine and Cisplatin. Each well contains either, agent alone or a combination of both agents. The final concentration ranges were as follows: VE-822, 0.3 nM-2 μM; Gemcitabine, 0.3 nM-0.22 μM; Cisplatin, 30 nM-20 μM. The cells were then incubated for 96 hours at 37° C. in an atmosphere of 5% CO2 and 95% humidity.
(§1) This assay measures the number of viable cells in a culture based on the quantitation of ATP, which is present in metabolically active cells.
(§2) CellTiter-Glo Reagent (Promega, Madison, Wis., USA) was prepared according to the manufacturer's instructions and added 96 hours after compound addition (25 μl/well) to measure cell viability. Luminescence signal was measured with the PHERAStarFS (BMG Labtech, Cary, N.C., USA) automated plate reader. […]
Raw luminescence CellTiter-Glo (CTG) values were normalized to the mean CTG value for the negative control DMSO-treated samples on each assay plate. IC50 values for chemotoxic alone were calculated using DMSO-normalized cell survival values for the samples treated with chemotoxic compound alone. […]

[2] = system: panel of 35 human lung cancer cell lines; experiment: Lung cancer cell screen, CellTiter-Glo cell viability assay; type: cell-based; conditions: 96 hours
Protocol: All cell lines were seeded in 30 μl of tissue culture medium containing 10% FBS into 384-well opaque-bottom assay plates. The seeding density was based on the logarithmic growth rate of each cell line. After 24 hours, compound stock solutions were added to each well to afford a matrix consisting of 5 concentrations for VE-822 and 6 concentrations for chemotoxics. Each well contains either, agent alone or a combination of both agents. The final concentration range for VE-822 was 25 nM-2 μM. The concentration ranges for the chemotoxics were as follows: Etoposide, 10 nM-10 μM; Gemcitabine, 0.16 nM-160 nM; Cisplatin, 20 nM-20 μM; Oxaliplatin, 40 nM-40 μM; Irinotecan (SN-38), 0.12 nM-120 nM. The cells were then incubated for 96 hours at 37° C. in an atmosphere of 5% CO2 and 95% humidity.
as §1, §2
Raw luminescence CellTiter-Glo (CTG) values were normalized to the mean CTG value for the negative control DMSO-treated samples on each assay plate. […]

[3] = system: MiaPaCa pancreatic cancer xenograft; experiment: MiaPaCa pancreatic cancer xenograft model with ionizing radiation; type: in vivo; conditions: FIG. 13
MRCS fibroblasts = experiment: Cell viability assay (Alamar Blue) with irradiation, normal cells; type: cell-based; conditions: VE-821 for 96 h with or without 4 Gy; viability after 8 days; FIG. 1 panel B
Protocol: (§3) PSN-1, Panc-1, MiaPaCa-2 pancreatic cancer cell lines and MRCS fibroblasts were treated with increasing concentrations of VE-821 for 96 h combined with or without 4 Gy radiation at 1 h after VE-821 addition. Cell viability was measured after 8 days and shown as normalized to DMSO-treated cells. MiaPaCa-2, PSN-1, Panc1 and MRCS cells (5×104) were plated in 96-well plates and after 4 h treated with increasing concentrations of VE-821 at 1 h before irradiation with a single dose of 6 Gy. Medium was replaced 96 h post-irradiation at which point viability was measured using the using the Alamar Blue assay (Resazurin substrate, SIGMA). Cells were allowed to proliferate and cell viability was again analyzed at day 8 for the different treatment conditions. Cell viability and surviving fraction were normalized to the untreated (control) group.

[4] = system: PSN-1, Panc-1, MiaPaCa-2 pancreatic cancer cell lines; experiment: Cell viability assay (Alamar Blue) with irradiation, tumour cells; type: cell-based; conditions: VE-821 for 96 h with or without 4 Gy; viability after 8 days; FIG. 1 panel B
Protocol: as §3

[5] = system: DNA damage foci and RAD51 foci; experiment: Nuclear foci analysis (γH2AX, 53BP1, RAD51); type: cell-based; conditions: 1 μM VE-821, 6 Gy
Protocol: Cells were treated with 1 μM VE-821 at various time points in relation to 6 Gy irradiation, as indicated, and fixed at 24 h post-irradiation. Subsequently, cells were stained for (A) γH2AX and (B) 53BP1 foci and the percentage of cells with more than 7 and 5 foci per cell was quantitated, respectively. C, for analysing Rad51 foci formation, cells were fixed at 6 h post-irradiation and the percentage of cells with more than 9 foci per cell was quantitated. Representative images are shown on the right (n=3). *, P<0.05 Cells growing in 96-well plates were treated with 1 μM VE-821 drug 1 h prior to 6 Gy irradiation and fixed in 3% formaldehyde at multiple time points. Cells were subsequently pearmeabalised and blocked in PBS with 0.1% Triton 1% BSA (w/v). Cells were incubated with primary antibody overnight at 4° C. and after a PBS wash incubated with fluorescently labeled secondary antibody followed gy a PBS wash and nuclear staining with DAPI. Images were acquired and foci quantitated using an IN Cell Analyzer 1000 automated epifluorescence microscope and analysis software (GE Healthcare, Cahlfont St. Giles, UK)

[6] = system: phosphorylation of Chk1 (Ser 345); experiment: Western blot analysis of Chk1 inhibition; type: cell-based; conditions: 1 μM VE-821; after gemcitabine (100 nM), radiation (6 Gy) or both; FIG. 1 panel A
Protocol: Cells were treated with 100 nM gemcitabine for 1 h, 1 μM VE-821 was added 1 h later and cells were irradiated (6 Gy) 1 h after that. Drugs were left for the duration of the experiment and cells were lysed at 2 h post-irradiation and subjected to Western blot analysis. MiaPaCa-2 and PSN-1 cells were exposed to gemcitabine and/or 1 μM VE-821 drug 1 h prior to irradiation with a single dose of 6 Gy. Cells were lysed in RIPA buffer 2 h post-irradiation and subjected to SDS-PAGE electrophoresis and immunoblotting. Chemoluminescence (SuperSignal, Millipore) and film exposure was used to detect antibody binding. Exposed film was digitized and figures were assembled using Microsoft PowerPoint.

SMILES: CNCc1ccc(-c2cc(-c3nc(-c4ccc(S(=O)(=O)C(C)C)cc4)cnc3N)on2)cc1 [VE-822]
- synergy with cisplatin and gemcitabine in pancreatic cancer cell lines ([1]; maximum shift in IC50 of each chemotoxic, 96 hours, FIG. 18): Synergizes with Cisplatin and Gemcitabine
- synergy (shift in IC50 of chemotoxic) in pancreatic cancer cell lines ([1]; with chemotoxics, FIG. 19): Greater than 3 fold
- synergy with chemotoxics across lung cancer cell lines ([2]; maximum shift in IC50 of each chemotoxic, FIG. 16): Synergizes with Chemotoxics
- synergy (shift in IC50 of chemotoxic) in lung cancer cell lines ([2]; with cisplatin, etoposide, gemcitabine, oxaplatin and irinotecan, FIG. 17): greater than 3 fold
- antitumor effects of ionizing radiation (tumor volume over time) [3]: enhances the antitumor effects of ionizing radiation

SMILES: CS(=O)(=O)c1ccc(-c2cnc(N)c(C(=O)Nc3ccccc3)n2)cc1 [VE-821]
- radiosensitisation of normal cells (cell viability) (MRCS fibroblasts): not normal cells
- radiosensitisation of pancreatic tumour cells (cell viability) [4]: radiosensitises pancreatic tumour cells
- RAD51 foci formation ([5]; fixed 6 h post-irradiation, FIG. 5): reduces RAD51 foci formation
- 53BP1 and γH2AX foci number ([5]; fixed 24 h post-irradiation, FIG. 5): increases 53BP1 and γH2AX foci number
- repair of DNA damage by homologous recombination ([5]; FIG. 5 panels A, B, C): inhibits repair of DNA damage by homologous recombination
- phosphorylation of Chk1 (Ser 345) [6]: inhibits phosphorylation of Chk1 (Ser 345)
